Assay results reported in patent publication US10087178B2, “Substituted spiropyrido[1,2-a]pyrazine derivative and medicinal use thereof as HIV integrase inhibitor” (priority 2012, dated 2018).
Counter-ions that a name gives are not always drawn. Like-named read-outs stand apart in the source and are kept apart here.

System: HIV-1 NL4-3 strain
Experiment: Evaluation of antiviral activity: acute infection system of MT-4 cell with HIV-1 NL4-3 strain
Assay type: cell-based
[1] = Human immunodeficiency virus 1, NL43, MT4, 120 h, MT-4 cells infected with HIV-1 NL4-3 strain (MOI 0.05), cultured 5 days, Cell Titer-Glo, read-out: antiviral activity (EC50)
[2] = Human immunodeficiency virus 1, NL43, MT4, 120 h, read-out: antiviral activity (EC50), MT-4 cells infected with HIV-1 NL4-3 strain (MOI 0.05), cultured 5 days, Cell Titer-Glo

**Q.** How did the EC50 [1] turn out when `CCOC[C@H]1C[C@@]12Cn1cc(C(=O)NCc3cccc(Cl)c3F)c(=O)c(O)c1C(=O)N2CC` [Example T45, (1S,2S)-N-(3-chloro-2-fluorobenzyl)-2-(ethoxymethyl)-2′-ethyl-9′-hydroxy-1′,8′-dioxo-1′,2′,4′,8′-tetrahydrospiro[cyclopropane-1,3′-pyrido[1,2-a]pyrazine]-7′-carboxamide] was run?
**A.** 4.4 nM

**Q.** How did the EC50 [2] turn out when `CCN1C(=O)c2c(O)c(=O)c(C(=O)NCc3cccc(Cl)c3F)cn2C[C@]12C[C@H]2CO` [Example T46, (1R,2R)-N-(3-chloro-2-fluorobenzyl)-2′-ethyl-9′-hydroxy-2-(hydroxymethyl)-1′,8′-dioxo-1′,2′,4′,8′-tetrahydrospiro[cyclopropane-1,3′-pyrido[1,2-a]pyrazine]-7′-carboxamide hydrochloride] was run?
**A.** 3.4 nM

**Q.** With `CC(C)N1C(=O)c2c(O)c(=O)c(C(=O)NCc3cccc(Cl)c3F)cn2C[C@@]12C[C@@H]2CO` [Example T47, (1S,2S)-N-(3-chloro-2-fluorobenzyl)-9′-hydroxy-2-(hydroxymethyl)-2′-isopropyl-1′,8′-dioxo-1′,2′,4′,8′-tetrahydrospiro[cyclopropane-1,3′-pyrido[1,2-a]pyrazine]-7′-carboxamide] as the molecule, how does the EC50 [1] read?
**A.** 4 nM

**Q.** `CCN1C(=O)c2c(O)c(=O)c(C(=O)NCc3ccc(OC)c(Cl)c3F)cn2C[C@@]12C[C@@H]2CO` [Example T48, (1S,2S)-N-(3-chloro-2-fluoro-4-methoxybenzyl)-2′-ethyl-9′-hydroxy-2-(hydroxymethyl)-1′,8′-dioxo-1′,2′,4′,8′-tetrahydrospiro[cyclopropane-1,3′-pyrido[1,2-a]pyrazine]-7′-carboxamide hydrochloride] was tested. Which EC50 [2] did it give?
**A.** 18 nM

**Q.** How did the EC50 [1] turn out when `CN1C(=O)c2c(O)c(=O)c(C(=O)NCc3cccc(Cl)c3F)cn2C[C@]12C[C@H]2CO` [Example T49, (1R,2R)-N-(3-chloro-2-fluorobenzyl)-9′-hydroxy-2-(hydroxymethyl)-2′-methyl-1′,8′-dioxo-1′,2′,4′,8′-tetrahydrospiro[cyclopropane-1,3′-pyrido[1,2-a]pyrazine]-7′-carboxamide] was run?
**A.** 7.2 nM

**Q.** With `COC[C@@H]1C[C@]12Cn1cc(C(=O)NCc3cccc(Cl)c3F)c(=O)c(O)c1C(=O)N2C` [Example T50, (1R,2R)-N-(3-chloro-2-fluorobenzyl)-9′-hydroxy-2-(methoxymethyl)-2′-methyl-1′,8′-dioxo-1′,2′,4′,8′-tetrahydrospiro[cyclopropane-1,3′-pyrido[1,2-a]pyrazine]-7′-carboxamide hydrochloride] as the molecule, how does the EC50 [2] read?
**A.** 3.7 nM

**Q.** Which EC50 (MT-4 cells infected with HIV-1 NL4-3 strain (MOI 0.05), cultured 5 days, Cell Titer-Glo, read-out: antiviral activity (EC50)) does the source give for “N-(3-chloro-2-fluorobenzyl)- 9′-hydroxy-cis-3-methoxy-2′- methyl-1′,8′-dioxo- 1′,2′,4′,8′- tetrahydrospiro[cyclobutane- 1,3′-pyrido[1,2-a]pyrazine]- 7′-carboxamide hydrochloride [Example S63]” here?
**A.** 4 nM
